Results from patent publication US9029337B2, “Modulation of factor 7 expression” (Isis Pharmaceuticals, Inc., priority 2007, dated 2015).
Strand notation (5' to 3'): a small letter for the sugar, then the base; units joined by * are phosphorothioate-linked, units joined directly phosphodiester-linked; [ ] holds rarer units or linkages, { } end groups; capitals alone tell only the bases. e = 2'-O-(2-methoxyethyl) (MOE); [5mC] = 5-methylcytosine; d = 2'-deoxy (DNA)

What was measured:
human Factor 7 mRNA [1] = test: Dose-dependent antisense inhibition of human Factor 7 in HepB3 cells, lipofectin; assay type: cell-based; details: for percent inhibition of Factor 7 mRNA, relative to untreated control cells: HepB3 cells, approx. 16 hours (Table 14); for percent inhibition of Factor 7: approximately 16 hours
Summary of the method: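 HepB3 cells (4,000/well) lipofectin-transfected with antisense oligonucleotide at 3.125 or 6.25 up to 100 nM for ~16 h. Factor 7 mRNA measured by real-time RT-PCR with primer probe set RTS 2927, adjusted to RIBOGREEN total RNA; expressed as percent inhibition versus untreated control cells.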

human Factor 7 mRNA [2] = test: Antisense inhibition of human Factor 7 mRNA in HepB3 cells, 50 nM antisense oligonucleotide, lipofectin; assay type: cell-based; details: lipofectin, approximately 24 hours
Summary of the method: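 Percent inhibition, untreated cells as reference: derived from RNA collected about 24 hours post-transfection of 4,000-cell wells, with the human RTS 2927 primer probe set and adjustment for total RNA content (RIBOGREEN®).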

[3] = Table 1, 50 nM, relative to untreated control cells
[4] = 50 nM antisense oligonucleotide, Factor 7 mRNA by real-time RT-PCR (RTS 2927), relative to untreated control

| Substance | percent inhibition of Factor 7 mRNA, relative to untreated control cells (human Factor 7 mRNA [1]; 3.125 nM) [%] | percent inhibition of Factor 7 mRNA, relative to untreated control cells (human Factor 7 mRNA [1]; 12.5 nM) [%] | percent inhibition of Factor 7 mRNA, relative to untreated control cells (human Factor 7 mRNA [1]; 25 nM) [%] | percent inhibition of Factor 7 mRNA, relative to untreated control cells (human Factor 7 mRNA [1]; 50 nM) [%] | percent inhibition of Factor 7 mRNA, relative to untreated control cells (human Factor 7 mRNA [1]; 100 nM) [%] | percent inhibition of Factor 7 mRNA, relative to untreated control cells (human Factor 7 mRNA [1]) [%] | percent inhibition of Factor 7 (human Factor 7 mRNA [1]; Table 3, 3.125 nM) [%] | percent inhibition of Factor 7 (human Factor 7 mRNA [1]; Table 3, 6.25 nM) [%] | percent inhibition of Factor 7 (human Factor 7 mRNA [1]; Table 3, 12.5 nM) [%] | percent inhibition of Factor 7 (human Factor 7 mRNA [1]; Table 3, 25.0 nM) [%] | percent inhibition of Factor 7 (human Factor 7 mRNA [1]; Table 3, 50.0 nM) [%] | percent inhibition of Factor 7 (human Factor 7 mRNA [1]; Table 3, 100.0 nM) [%] | percent inhibition of Factor 7 (human Factor 7 mRNA [1]; Table 7, 6.25 nM) [%] | percent inhibition of Factor 7 (human Factor 7 mRNA [1]; Table 7, 12.5 nM) [%] | percent inhibition of Factor 7 (human Factor 7 mRNA [1]; Table 7, 25.0 nM) [%] | percent inhibition of Factor 7 (human Factor 7 mRNA [1]; Table 7, 50.0 nM) [%] | percent inhibition of Factor 7 (human Factor 7 mRNA [1]; Table 7, 100.0 nM) [%] | % Inhibition (human Factor 7 mRNA [2]; [3]) [%] | % Inhibition (human Factor 7 mRNA [2]; Table 13 (microwalk), 50 nM) [%] | % Inhibition (human Factor 7 mRNA [2]; [4]) [%] |
| --- | --- | --- | --- | --- | --- | --- | --- | --- | --- | --- | --- | --- | --- | --- | --- | --- | --- | --- | --- | --- |
| 407935 (antisense eA*eT*eG*e[5mC]*eA*dT*dG*dG*dT*dG*dA*dT*dG*d[5mC]*dT*eT*e[5mC]*eT*eG*eA) [compound 407935] | 19 | 58 | 70 | 85 | 87 | 39 | 57 | 76 | 78 | 89 | 90 | 89 | 38 | 53 | 70 | 82 | 86 | 94 | 79 | 72 |
| 407939 (antisense eT*eG*e[5mC]*eA*eG*d[5mC]*d[5mC]*d[5mC]*dG*dG*d[5mC]*dA*d[5mC]*d[5mC]*d[5mC]*eA*eG*e[5mC]*eG*eA) [compound 407939] | 17 | 57 | 75 | 80 | 83 | 35 | 62 | 79 | 83 | 91 | 92 | 92 | 37 | 57 | 77 | 84 | 87 | 93 |  | 76 |
